Assay: Chemical stability: concentration / degradation of compound of Formula I in compositions on storage
[1] = SC composition at pH 4, Table 12

Method: The amount of degradation permitted before the degradation is considered to be significant depends on the concentration of the active ingredients in the composition.
The physical and chemical stability of composition of Example 5 was tested under various conditions including CIPAC conditions.

In the case of `Cc1ccc(S(=O)(=O)n2cc(F)c(=N)n(C)c2=O)cc1` [Form III, 5-fluoro-4-imino-3-methyl-1-tosyl-3,4-dihydropyrimidin-2(1H)-one], the “stability in oil dispersion (OD) composition compared with suspension concentrate (SC) composition” value is reported as “more stable”.

In the case of `Cc1ccc(S(=O)(=O)n2cc(F)c(=N)n(C)c2=O)cc1` [compound of Formula I, 5-fluoro-4-imino-3-methyl-1-tosyl-3,4-dihydropyrimidin-2(1H)-one], the “amount of the compound of Formula I in the composition, after decrease” value [1] is reported as 31.1 % by weight based on the total weight of the composition and the “amount of the compound of Formula I in the composition, before decrease” value [1] is reported as 44.4 % by weight based on the total weight of the composition.

For `Cc1ccc(S(=O)(=O)n2cc(F)c(=N)n(C)c2=O)cc1` [Hydrate I (45% Hydrate, and 55% Form I Polymorph)] [5-fluoro-4-imino-3-methyl-1-tosyl-3,4-dihydropyrimidin-2(1H)-one], the “% Water Content” value (total water in the composition, including free water and water in the hydrate) was 0.29%.

From patent US20240237649A1, “CRYSTALLINE FORMS OF 5-FLUORO-4-IMINO-3-METHYL-1-TOSYL-3,4-DIHYDROPYRIMIDIN-2-ONE, AND MIXTURES, COMPOSITIONS AND METHODS OF USE THEREOF” (Adama Makhteshim Ltd., priority 2021, published 2024)
